Reference: US6355799B1, “Substituted benzene compounds, process for their preparation, and herbicidal and defoliant compositions containing them” (ISK Americas Incorporated, priority 1997, dated 2002)

Experiments:
Type in all cases: in vivo
[1] = tested on: redroot pigweed (Amaranthus retroflexus, AMARE); assay: Pre-emerge test, greenhouse herbicide activity screening; settings: pre-emerge, rated 14 days after application, 0 = no damage, 100 = complete death
How it was run: (§1)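 Rating: 0–100 visual injury, 14 DAA. Application: acetone, 187 l/ha, 15–1000 g ai/ha, flat-fan track sprayer with nozzle 40–45 cm above soil or canopy. Post-emerge runs used 0.25% v/v surfactant on 2–3 leaf plants.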

[2] = tested on: field corn (Zea mays L., var. Dekalb 535, CORN); assay: Pre-emerge test, crop safety; settings: pre-emerge, rated 14 days after application, 0 = no damage, 100 = complete death
How it was run: as §1

[3] = tested on: upland rice (Oryza sp., var. Tebonnet, RICE); assay: Pre-emerge test, crop safety; settings: pre-emerge, rated 14 days after application, 0 = no damage, 100 = complete death
How it was run: as §1

[4] = tested on: field corn (Zea mays L., var. Dekalb 535, CORN); assay: Post-emerge test, crop safety; settings: phytotoxicity rating 0-100 (0 no damage, 100 complete death), 14 days after application
How it was run: (§2)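 Each test used a mechanized track sprayer delivering 187 l/ha of acetone solution at 15–1000 g ai/ha. Post-emerge foliage at 2–3 leaves was treated with added 0.25% v/v non-ionic surfactant and bottom-watered only. Injury was assessed on day 14, where 100 means total kill.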

[5] = tested on: upland rice (Oryza sp., var. Tebonnet, RICE); assay: Post-emerge test, crop safety; settings: phytotoxicity rating 0-100 (0 no damage, 100 complete death), 14 days after application
How it was run: as §2

[6] = tested on: velvetleaf (Abutilon theophrasti, ABUTH); assay: Post-emerge test, greenhouse herbicide activity screening; settings: phytotoxicity rating 0-100 (0 no damage, 100 complete death), 14 days after application
How it was run: (§3)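 Sandy loam pots; pre-emerge: sown 1 d pre-spray, surface-watered after, then bottom-watered. Post-emerge: sown 8–21 d before, 2–3 leaf stage, + 0.25% v/v NIS, bottom-watered. Acetone, 187 l/ha track spray, 15–1000 g ai/ha. 0–100 injury score, day 14.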

[7] = tested on: large crabgrass (Digitaria sanguinalis, DIGSA); assay: as above; settings: phytotoxicity rating 0-100 (0 no damage, 100 complete death), 14 days after application
How it was run: as §3

[8] = tested on: common ragweed (Ambrosia artemisizfolia L., AMBEL); assay: as above; settings: phytotoxicity rating 0-100 (0 no damage, 100 complete death), 14 days after application
How it was run: as §3

[9] = tested on: barnyardgrass (Echinochloa crus-galli, ECHCG); assay: as above; settings: phytotoxicity rating 0-100 (0 no damage, 100 complete death), 14 days after application
How it was run: as §3

[10] = tested on: sicklepod (Cassia obtusifolia, CASOB); assay: as above; settings: phytotoxicity rating 0-100 (0 no damage, 100 complete death), 14 days after application
How it was run: as §3

[11] = tested on: redroot pigweed (Amaranthus retroflexus, AMARE); assay: as above; settings: phytotoxicity rating 0-100 (0 no damage, 100 complete death), 14 days after application
How it was run: as §3

[12] = tested on: ivyleaf morningglory (Ipomoea hederacea, IPOHE); assay: as above; settings: phytotoxicity rating 0-100 (0 no damage, 100 complete death), 14 days after application
How it was run: as §3

[13] = tested on: lambsquarters (Chenopodium album, CHEAL); assay: as above; settings: phytotoxicity rating 0-100 (0 no damage, 100 complete death), 14 days after application
How it was run: as §3

[14] = tested on: green foxtail (Setaria viridis, SETVI); assay: as above; settings: phytotoxicity rating 0-100 (0 no damage, 100 complete death), 14 days after application
How it was run: as §3

[15] = tested on: velvetleaf (Abutilon theophrasti, ABUTH); assay: Pre-emerge test, greenhouse herbicide activity screening; settings: pre-emerge, rated 14 days after application, 0 = no damage, 100 = complete death
How it was run: (§4)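 Plants grown in 10 cm pots of sandy loam mix received acetone-dissolved compounds through a moving flat-fan nozzle. Doses ranged from 15 to 1000 g ai/ha. Pre-emerge pots were seeded one day earlier, post-emerge pots 8–21 days earlier. Fourteen days on, each pot was graded 0–100 for damage.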

[16] = tested on: large crabgrass (Digitaria sanguinalis, DIGSA); assay: as above; settings: pre-emerge, rated 14 days after application, 0 = no damage, 100 = complete death
How it was run: as §4

[17] = tested on: johnsongrass (Sorghum halepense, SORHA); assay: as above; settings: pre-emerge, rated 14 days after application, 0 = no damage, 100 = complete death
How it was run: as §4

[18] = tested on: common ragweed (Ambrosia artemisizfolia L., AMBEL); assay: as above; settings: pre-emerge, rated 14 days after application, 0 = no damage, 100 = complete death
How it was run: as §4

[19] = tested on: barnyardgrass (Echinochloa crus-galli, ECHCG); assay: as above; settings: pre-emerge, rated 14 days after application, 0 = no damage, 100 = complete death
How it was run: as §4

[20] = tested on: sicklepod (Cassia obtusifolia, CASOB); assay: as above; settings: pre-emerge, rated 14 days after application, 0 = no damage, 100 = complete death
How it was run: as §4

[21] = tested on: ivyleaf morningglory (Ipomoea hederacea, IPOHE); assay: as above; settings: pre-emerge, rated 14 days after application, 0 = no damage, 100 = complete death
How it was run: as §4

[22] = tested on: lambsquarters (Chenopodium album, CHEAL); assay: as above; settings: pre-emerge, rated 14 days after application, 0 = no damage, 100 = complete death
How it was run: as §4

[23] = tested on: green foxtail (Setaria viridis, SETVI); assay: as above; settings: pre-emerge, rated 14 days after application, 0 = no damage, 100 = complete death
How it was run: as §4

Which “Pre-emerge Herbicidal Activity AMARE (phytotoxicity rating, scale 0-100)” value ([1]; 63 g ai/ha) does the source give for `CCOc1c(Cl)cc(F)c(-n2c(=O)cc(C(F)(F)F)n(C)c2=O)c1N` [Compound 1-61] here?
The value was 95.

What about the “Pre-emerge Herbicidal Activity AMARE (phytotoxicity rating, scale 0-100)” value ([1]; 250 g ai/ha) of the same compound?
Its value is 100.

And the “Pre-emerge crop damage CORN (phytotoxicity rating, scale 0-100)” value ([2]; 63 g ai/ha)?
The value was 60.

And the “Pre-emerge crop damage CORN (phytotoxicity rating, scale 0-100)” value ([2]; 250 g ai/ha)?
The value was 95.

And the “Pre-emerge crop damage RICE (phytotoxicity rating, scale 0-100)” value ([3]; 63 g ai/ha)?
The value was 50.

And the “Pre-emerge crop damage RICE (phytotoxicity rating, scale 0-100)” value ([3]; 250 g ai/ha)?
Its value is 95.

And the “Post-emerge Herbicidal Activity CORN (crop damage)” value ([4]; 63 g ai/ha)?
The value was 10.

What about the “Post-emerge Herbicidal Activity CORN (crop damage)” value ([4]; 250 g ai/ha) of the same compound?
The value was 30.

And the “Post-emerge Herbicidal Activity RICE (crop damage)” value ([5]; 63 g ai/ha)?
Its value is 10.

And the “Post-emerge Herbicidal Activity RICE (crop damage)” value ([5]; 250 g ai/ha)?
Its value is 35.

What about the “Post-emerge Herbicidal Activity ABUTH” value ([6]; 63 g ai/ha) of the same compound?
Its value is 70.

And the “Post-emerge Herbicidal Activity ABUTH” value ([6]; 250 g ai/ha)?
Its value is 100.

And the “Post-emerge Herbicidal Activity DIGSA” value ([7]; 63 g ai/ha)?
Its value is 10.

What about the “Post-emerge Herbicidal Activity DIGSA” value ([7]; 250 g ai/ha) of the same compound?
Its value is 30.

And the “Post-emerge Herbicidal Activity AMBEL” value ([8]; 63 g ai/ha)?
The value was 70.

And the “Post-emerge Herbicidal Activity AMBEL” value ([8]; 250 g ai/ha)?
Its value is 85.

And the “Post-emerge Herbicidal Activity ECHCG” value ([9]; 63 g ai/ha)?
Its value is 0.

And the “Post-emerge Herbicidal Activity ECHCG” value ([9]; 250 g ai/ha)?
The value was 10.

And the “Post-emerge Herbicidal Activity CASOB” value ([10]; 63 g ai/ha)?
The value was 60.

And the “Post-emerge Herbicidal Activity CASOB” value ([10]; 250 g ai/ha)?
Its value is 70.

What about the “Post-emerge Herbicidal Activity AMARE” value ([11]; 63 g ai/ha) of the same compound?
Its value is 50.

And the “Post-emerge Herbicidal Activity AMARE” value ([11]; 250 g ai/ha)?
Its value is 70.

What about the “Post-emerge Herbicidal Activity IPOHE” value ([12]; 63 g ai/ha) of the same compound?
Its value is 100.

What about the “Post-emerge Herbicidal Activity IPOHE” value ([12]; 250 g ai/ha) of the same compound?
Its value is 100.

What about the “Post-emerge Herbicidal Activity CHEAL” value ([13]; 63 g ai/ha) of the same compound?
Its value is 30.

What about the “Post-emerge Herbicidal Activity CHEAL” value ([13]; 250 g ai/ha) of the same compound?
The value was 70.

And the “Post-emerge Herbicidal Activity SETVI” value ([14]; 63 g ai/ha)?
The value was 10.

And the “Post-emerge Herbicidal Activity SETVI” value ([14]; 250 g ai/ha)?
Its value is 30.

And the “Pre-emerge Herbicidal Activity ABUTH (phytotoxicity rating, scale 0-100)” value ([15]; 63 g ai/ha)?
The value was 100.

And the “Pre-emerge Herbicidal Activity ABUTH (phytotoxicity rating, scale 0-100)” value ([15]; 250 g ai/ha)?
Its value is 100.

What about the “Pre-emerge Herbicidal Activity DIGSA (phytotoxicity rating, scale 0-100)” value ([16]; 63 g ai/ha) of the same compound?
Its value is 40.

And the “Pre-emerge Herbicidal Activity DIGSA (phytotoxicity rating, scale 0-100)” value ([16]; 250 g ai/ha)?
Its value is 99.

What about the “Pre-emerge Herbicidal Activity SORHA (phytotoxicity rating, scale 0-100)” value ([17]; 63 g ai/ha) of the same compound?
Its value is 70.

And the “Pre-emerge Herbicidal Activity SORHA (phytotoxicity rating, scale 0-100)” value ([17]; 250 g ai/ha)?
Its value is 99.

And the “Pre-emerge Herbicidal Activity AMBEL (phytotoxicity rating, scale 0-100)” value ([18]; 63 g ai/ha)?
The value was 60.

What about the “Pre-emerge Herbicidal Activity AMBEL (phytotoxicity rating, scale 0-100)” value ([18]; 250 g ai/ha) of the same compound?
The value was 100.

What about the “Pre-emerge Herbicidal Activity ECHCG (phytotoxicity rating, scale 0-100)” value ([19]; 63 g ai/ha) of the same compound?
The value was 75.

And the “Pre-emerge Herbicidal Activity ECHCG (phytotoxicity rating, scale 0-100)” value ([19]; 250 g ai/ha)?
The value was 99.

What about the “Pre-emerge Herbicidal Activity CASOB (phytotoxicity rating, scale 0-100)” value ([20]; 63 g ai/ha) of the same compound?
The value was 30.

And the “Pre-emerge Herbicidal Activity CASOB (phytotoxicity rating, scale 0-100)” value ([20]; 250 g ai/ha)?
Its value is 80.

And the “Pre-emerge Herbicidal Activity IPOHE (phytotoxicity rating, scale 0-100)” value ([21]; 63 g ai/ha)?
The value was 60.

And the “Pre-emerge Herbicidal Activity IPOHE (phytotoxicity rating, scale 0-100)” value ([21]; 250 g ai/ha)?
The value was 90.

And the “Pre-emerge Herbicidal Activity CHEAL (phytotoxicity rating, scale 0-100)” value ([22]; 63 g ai/ha)?
The value was 100.

And the “Pre-emerge Herbicidal Activity CHEAL (phytotoxicity rating, scale 0-100)” value ([22]; 250 g ai/ha)?
The value was 100.

And the “Pre-emerge Herbicidal Activity SETVI (phytotoxicity rating, scale 0-100)” value ([23]; 63 g ai/ha)?
Its value is 95.

What about the “Pre-emerge Herbicidal Activity SETVI (phytotoxicity rating, scale 0-100)” value ([23]; 250 g ai/ha) of the same compound?
The value was 100.
